SMILES strings stand for the structures.

As usually defined, the fraction unbound is the share of the substance not bound to proteins or other matrix. Read a low fraction unbound as little free substance.

A short description of this data set: in vitro. The conditions noted are these: both, human, plasma.
[1] abbreviates: Fraction Unbound (fu), Run-specific Avg, average of one UC run.
[2] abbreviates: Mean Fu, mean fraction unbound in human plasma over all UC replicates/runs.
[3] abbreviates: Mean fu, fraction unbound in human plasma, ultracentrifugation, some values based on eLOQ.
The mark [4] stands for this setting: Fraction Unbound (fu), individual replicates A, B, C of the UC run named in c8.

`NC(=O)C(F)(F)C(F)(F)C(F)(F)F` [Heptafluorobutyramide] displayed a fraction unbound under setting [1] of 0.6; a fraction unbound (Fraction Unbound (fu), replicate A, individual replicate A of the UC run dated in c8) of 0.667; a free fraction (fraction unbound) (Fraction Unbound (fu), replicate B, individual replicate B of the UC run dated in c8) of 0.57; a free fraction (fraction unbound) (Fraction Unbound (fu), replicate C, individual replicate C of the UC run dated in c8) of 0.565; a fraction unbound (Mean Fu (fraction unbound), mean over all UC runs and replicates, human plasma) of 0.603; a fraction unbound under setting [2] of 0.603. The fraction unbound is, setting by setting: under setting [3], 0.603; (Mean fu, fraction unbound in human plasma, used for IVIVE) 0.603.
Turning to `OCCC(F)(F)C(F)(F)C(F)(F)C(F)(F)F` [4:2 Fluorotelomer alcohol], the free fraction (fraction unbound) by setting is: under setting [1], 0.17; under setting [4], 0.206; under setting [3], 0.168.
In the case of `OCC(F)(F)C(F)(F)C(F)(F)C(F)(F)C(F)(F)C(F)(F)C(F)(F)C(F)(F)CO` [1H,1H,10H,10H-Perfluorodecane-1,10-diol], the unbound share (fraction unbound) by setting is: under setting [1], 0.84; (Fraction Unbound (fu), Run-specific Avg, average of one UC run (run date in line above)) 0.00495; under setting [4], 0.83; (Fraction Unbound (fu), replicates A, B, C, single replicate of one UC run (aqueous fraction / Time 5 hr)) 0.00438; under setting [2], 0.841; (Mean Fu, mean fraction unbound over all replicates and runs, UC assay, human plasma) 0.00469. This molecule yielded a fraction unbound under setting [3] of 0.0047.

The record behind these values is PMC10223284, “Category-Based Toxicokinetic Evaluations of Data-Poor Per- and Polyfluoroalkyl Substances (PFAS) using Gas Chromatography Coupled with Mass Spectrometry” (Toxics, 2023).
